According to ChEMBL document CHEMBL1201862, “PubChem BioAssay data set” (2004):
The source made the active and inactive calls.

Key:
H9c2 = test: cells; format: functional, cell-based; conditions: Rattus norvegicus, H9c2, Myocardium;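 note: confirmatory concentration-response retest of ultra-high-throughput screening hits for modulation of myocardial damage; cell death induced by hydrogen peroxide oxidative stress; compound pretreatment for 60 min then peroxide exposure for 2 h; potency is for protecting the cells against peroxide damage rather than for killing them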
HEK293 = test: EBV LMP1 TES2 canonical NF-kB signalling blockers – cell-based, HEK293, luciferase, cherry-pick, dose response (AID 588343); format: functional; conditions: Homo sapiens
[1] = molecular target: T1, Endoribonuclease toxin MazF (Escherichia coli K-12, UniProt P0AE70); test: substrate-only fluorescence increase artefacts – biochemical, single-stranded RNase substrate, counter-screen for MazEF activator project, dose response (AID 588502); format: functional
T1 sequence (P0AE70 whole entry): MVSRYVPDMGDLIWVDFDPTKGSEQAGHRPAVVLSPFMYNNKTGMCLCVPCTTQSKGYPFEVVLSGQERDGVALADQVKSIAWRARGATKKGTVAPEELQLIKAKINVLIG

[2] = molecular target: T1, Endoribonuclease toxin MazF; test: activation of MazEF endoribonuclease cleavage – biochemical, fluorescence, single-stranded RNA substrate, uHTS hits, dose response (AID 588481); format: functional
[3] = molecular target: Luciferin 4-monooxygenase (Photinus pyralis, UniProt P08659); test: inhibition of purified Photinus pyralis luciferase – biochemical, luminescence, dose response (AID 1891)
Chain of Luciferin 4-monooxygenase (P08659 whole entry): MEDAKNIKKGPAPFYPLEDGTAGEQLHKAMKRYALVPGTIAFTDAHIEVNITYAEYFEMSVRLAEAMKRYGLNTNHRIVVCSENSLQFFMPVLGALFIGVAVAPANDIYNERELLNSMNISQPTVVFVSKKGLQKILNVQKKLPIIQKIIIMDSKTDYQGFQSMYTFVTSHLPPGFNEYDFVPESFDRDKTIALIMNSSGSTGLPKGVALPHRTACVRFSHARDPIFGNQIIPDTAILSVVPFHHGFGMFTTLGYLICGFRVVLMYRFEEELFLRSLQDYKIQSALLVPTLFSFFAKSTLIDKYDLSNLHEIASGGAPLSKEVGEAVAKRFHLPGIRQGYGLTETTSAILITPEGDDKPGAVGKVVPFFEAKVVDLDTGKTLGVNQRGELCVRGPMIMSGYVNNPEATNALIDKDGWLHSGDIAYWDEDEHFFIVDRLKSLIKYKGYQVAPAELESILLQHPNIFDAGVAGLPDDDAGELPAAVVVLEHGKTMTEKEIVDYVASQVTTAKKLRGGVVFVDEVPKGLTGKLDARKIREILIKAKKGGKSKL

[4] = Luminescence Cell-Based Dose Confirmation HTS to Identify Inhibitors of Platelet Dense Granule Release. [Related pubchem assays: 1663 (Primary HTS), 1678 (Summary of Project)]; format: functional
Steroidogenic factor 1 = Steroidogenic factor 1 (Homo sapiens, UniProt Q13285); test: Counterscreen for inverse agonists of the liver receptor homolog-1 (LRH-1; NR5A2): Luminescence-based cell-based high throughput dose response assay to identify inverse agonists of the Steroidogenic Factor 1 Nuclear Receptor (SF1; NR5A1).; format: functional
Chain of Steroidogenic factor 1 (Q13285 whole entry): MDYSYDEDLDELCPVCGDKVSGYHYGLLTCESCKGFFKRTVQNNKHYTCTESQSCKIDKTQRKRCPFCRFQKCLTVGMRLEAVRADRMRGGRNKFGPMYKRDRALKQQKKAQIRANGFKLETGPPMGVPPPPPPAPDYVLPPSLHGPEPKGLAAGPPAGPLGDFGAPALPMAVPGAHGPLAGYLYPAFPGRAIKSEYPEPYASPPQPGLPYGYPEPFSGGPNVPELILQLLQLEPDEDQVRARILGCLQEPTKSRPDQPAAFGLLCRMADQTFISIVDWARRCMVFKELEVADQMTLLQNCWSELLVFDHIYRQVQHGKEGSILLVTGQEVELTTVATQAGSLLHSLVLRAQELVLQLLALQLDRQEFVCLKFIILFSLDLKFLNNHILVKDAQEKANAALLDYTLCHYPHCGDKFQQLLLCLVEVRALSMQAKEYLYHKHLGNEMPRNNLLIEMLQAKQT

[5] = nonselective StAR promoter luciferase inhibitors – cell-based, luminescence, luciferase reporter, counter-screen for LRH-1 inverse agonist project, dose response (AID 651969); format: functional
[6] = molecular target: Nuclear receptor subfamily 5 group A member 2 (Homo sapiens, UniProt O00482); format: functional, cell-based;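 note: HEK293T cells transfected with LRH-1 and a StAR promoter luciferase reporter; potency for inhibitors that lower LRH-1 driven reporter light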
Chain of Nuclear receptor subfamily 5 group A member 2 (O00482 whole entry): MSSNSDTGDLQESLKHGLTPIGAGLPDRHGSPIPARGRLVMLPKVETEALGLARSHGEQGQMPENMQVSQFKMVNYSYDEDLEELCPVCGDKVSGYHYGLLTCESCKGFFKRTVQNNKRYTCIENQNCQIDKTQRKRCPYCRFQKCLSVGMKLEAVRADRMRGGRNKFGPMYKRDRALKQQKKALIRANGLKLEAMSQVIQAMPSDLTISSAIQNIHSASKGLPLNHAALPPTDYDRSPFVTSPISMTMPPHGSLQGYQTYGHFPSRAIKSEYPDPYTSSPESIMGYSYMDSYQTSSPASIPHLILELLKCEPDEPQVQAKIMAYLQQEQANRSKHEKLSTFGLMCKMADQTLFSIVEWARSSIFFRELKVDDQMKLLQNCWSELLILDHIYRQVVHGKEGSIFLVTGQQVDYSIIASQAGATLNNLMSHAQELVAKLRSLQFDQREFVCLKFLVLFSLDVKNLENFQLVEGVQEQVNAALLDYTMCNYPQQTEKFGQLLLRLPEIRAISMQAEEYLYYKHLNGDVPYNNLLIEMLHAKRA

[7] = NIH3T3 cell viability loss – ATP luminescence, mouse fibroblasts, counter-screen, dose response (AID 2010); format: functional, cell-based;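 note: cells exposed to compound for about 90 hours before reading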
[8] = Trypanosoma cruzi growth suppression in host cells – NIH3T3 host cells, beta-gal luminescence, confirmation (AID 2044); format: functional, cell-based;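 note: intracellular parasites grown in NIH/3T3 mouse fibroblasts as host cells; luminescent beta-galactosidase reporter signal from transgenic T. cruzi replicating inside host cells; inhibitors lower the luminescence signal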
[9] = molecular target: T2, Heat shock factor protein 1 (Mus musculus, UniProt P38532); test: decrease of HSF1-responsive luciferase luminescence – cell-based, NIH3T3, dose retest, confirmation (AID 2382); format: functional;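 note: NIH3T3 fibroblasts with HSF1-driven luciferase reporter stressed by proteasome inhibitor MG132; luminescence from HSF1-driven luciferase expression after 8 hours of MG132 stress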
T2 sequence (P38532 whole entry): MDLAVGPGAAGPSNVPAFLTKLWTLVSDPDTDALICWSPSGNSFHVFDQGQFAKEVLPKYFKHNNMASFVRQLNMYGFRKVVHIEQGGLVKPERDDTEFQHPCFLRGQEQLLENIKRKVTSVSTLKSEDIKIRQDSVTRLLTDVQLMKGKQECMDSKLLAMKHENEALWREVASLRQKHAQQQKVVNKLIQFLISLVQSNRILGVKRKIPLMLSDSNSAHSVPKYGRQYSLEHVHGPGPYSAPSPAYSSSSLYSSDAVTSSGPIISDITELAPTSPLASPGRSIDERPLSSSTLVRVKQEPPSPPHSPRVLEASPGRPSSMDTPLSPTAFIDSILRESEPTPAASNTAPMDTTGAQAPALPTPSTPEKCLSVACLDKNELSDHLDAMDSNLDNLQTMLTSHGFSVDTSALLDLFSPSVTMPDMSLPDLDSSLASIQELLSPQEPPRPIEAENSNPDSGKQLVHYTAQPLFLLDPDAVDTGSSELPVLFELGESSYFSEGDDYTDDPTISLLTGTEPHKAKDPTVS

[10] = Luminescence Cell-Based Dose Response HTS to Identify Inhibitors of 5'UTR Stem-Loop Driven Prion Protein mRNA Translation in H4 Neuroglioblastoma Cells. [Related pubchem assays: 1827 (Project Summary), 1813 (Primary HTS)]; format: functional
[11] = luciferase reporter signal suppression in cells – H4 neuroglioma cells, luminescence, dose response (AID 1990); format: functional, cell-based
[12] = alpha-synuclein stem-loop luciferase translation blockers – H4 neuroglioma cells, luminescence, confirmation (AID 1988); format: functional, cell-based
[13] = molecular target: Mitogen-activated protein kinase 10 (Homo sapiens, UniProt P53779); test: Dose response biochemical screening assay for inhibitors of c-Jun N-Terminal Kinase 3 (JNK3). [Related pubchem assays: 746 ]
Chain of Mitogen-activated protein kinase 10 (P53779 whole entry): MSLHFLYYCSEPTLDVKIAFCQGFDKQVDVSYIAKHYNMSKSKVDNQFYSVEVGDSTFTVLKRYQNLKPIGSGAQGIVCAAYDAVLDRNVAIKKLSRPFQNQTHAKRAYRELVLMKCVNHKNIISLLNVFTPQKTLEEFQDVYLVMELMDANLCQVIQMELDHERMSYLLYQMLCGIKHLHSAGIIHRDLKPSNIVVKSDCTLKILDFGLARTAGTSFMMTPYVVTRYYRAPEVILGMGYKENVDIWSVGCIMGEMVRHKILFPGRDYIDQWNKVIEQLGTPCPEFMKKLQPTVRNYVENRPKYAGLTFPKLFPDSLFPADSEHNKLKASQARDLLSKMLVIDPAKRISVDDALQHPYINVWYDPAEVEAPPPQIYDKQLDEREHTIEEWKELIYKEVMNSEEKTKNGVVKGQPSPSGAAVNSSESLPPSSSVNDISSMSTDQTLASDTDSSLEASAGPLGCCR

[14] = molecular target: T3, DNA repair protein RAD52 homolog (Homo sapiens, UniProt P43351); format: functional, biochemical
T3 sequence (P43351 whole entry): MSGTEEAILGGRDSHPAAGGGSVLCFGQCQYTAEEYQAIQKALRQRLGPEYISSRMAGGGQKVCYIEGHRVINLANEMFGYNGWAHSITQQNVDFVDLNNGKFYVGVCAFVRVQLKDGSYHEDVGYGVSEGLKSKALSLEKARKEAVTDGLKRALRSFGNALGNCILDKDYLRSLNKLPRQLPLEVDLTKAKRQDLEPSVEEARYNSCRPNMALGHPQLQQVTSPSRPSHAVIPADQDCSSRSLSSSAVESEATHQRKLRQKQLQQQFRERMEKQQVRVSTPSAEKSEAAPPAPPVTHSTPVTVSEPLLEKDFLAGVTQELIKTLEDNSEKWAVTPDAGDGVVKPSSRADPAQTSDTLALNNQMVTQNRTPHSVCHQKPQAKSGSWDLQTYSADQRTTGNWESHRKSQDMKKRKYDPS

In the case of `CNS(=O)(=O)c1ccc2nc(NC(=O)/C=C/c3ccco3)sc2c1`, the IC50 (H9c2) is reported as > 79 µM (inactive).
In the case of `CC(=O)c1cccc(NC(=O)Nc2ccc(C(=O)N3CCOCC3)cc2)c1`, the AC50 (HEK293) is reported as 31.8 µM (active).
For `Cc1ccc(N/C=C2/C(=O)N(c3nccs3)C(=O)c3ccccc32)c(C)c1`, the EC50 [1] was > 99 µM (inactive) and the EC50 [2] was > 99 µM (inactive).
For `CCc1cc(=O)oc2c(C)c(OCC(=O)NC3CC(C)(C)NC(C)(C)C3)ccc12`, the EC50 [3] was > 112 µM (not active), the EC50 [4] was > 112 µM (not active) and the IC50 (Steroidogenic factor 1) was 1.82 µM (active). The IC50 [5] was 35.9 µM (inactive) and the IC50 [6] was 35.9 µM (inactive).
With `Cc1ccccc1Nc1nc(-c2cccnc2)nc2ccccc12` the EC50 [7] was > 60 µM (inconclusive), the EC50 [8] was 0.741 µM (active) and the IC50 (Steroidogenic factor 1) was 12.6 µM (inactive). The IC50 [5] was 24.9 µM (inactive) and the IC50 [6] was 15.5 µM (inactive).
For `Cc1c(C(=O)C2=C(O)C(=O)N(CCN3CCOCC3)C2c2ccccn2)cnn1-c1ccccc1` (centres undefined), the AC50 (HEK293) was 2.31 µM (active) and the EC50 [9] was 1.29 µM (active).
With `CCN(CC)c1ccc(C(=O)NNC(=O)CCc2nc(O)c3ccccc3n2)cc1` the IC50 (H9c2) was 18 µM (active).
For `Cn1c(/C=C/c2ccccc2[N+](=O)[O-])nc2ccccc2c1=O`, the EC50 [1] was > 99 µM (inactive) and the EC50 [2] was > 99 µM (inactive).
With `COCCn1c(C)cc(C(=O)COC(=O)c2[nH]nc3ccccc23)c1C` the EC50 [10] was 4.02 µM (active), the EC50 [11] was 4.23 µM (inconclusive) and the AC50 (HEK293) was 2.08 µM (active). For the same compound, the EC50 [12] was 1.58 µM (active).
In the case of `CCCc1cc(=O)oc2cc(C)cc(OCC(=O)Nc3ccccn3)c12`, the IC50 (Steroidogenic factor 1) is reported as 0.802 µM (active), the IC50 [5] is reported as 35.9 µM (inactive) and the IC50 [6] is reported as 3.99 µM (active).
For `COc1ccccc1Nc1nc2ccc(C)cc2cc1C#N`, the EC50 [1] was 58.3 µM (inactive) and the EC50 [2] was > 99 µM (inactive).
For `CC1=CC(=C2C(=O)c3ccccc3C2=O)C=C(C)N1Cc1ccco1`, the IC50 [13] was 22.9 µM (not active).
For `CCOc1ccc(OCc2cccc(C(=O)N3CCCC3)c2)cc1`, the AC50 (HEK293) was 4.43 µM (active).
In the case of `COc1ccc(C(=O)NCc2cn3c(C)csc3n2)cc1OC`, the IC50 [13] is reported as > 31 µM (not active).
In the case of `CCC1S/C(=C(\C#N)C(N)=O)N(c2ccc(F)cc2)C1=O` (centres undefined), the IC50 [13] is reported as 32.6 µM (not active).
With `OC(CN1CCCCC1)Cn1c2ccccc2c2cc(Br)ccc21` (centres undefined) the AC50 [14] was 19 µM (active).
With `Cc1cc(C)c2sc(N(CCCN(C)C)C(=O)CN3C(=O)c4ccccc4C3=O)nc2c1` the AC50 [14] was 9.02 µM (active).
